# Measured values taken from patent US9782371B2, “Composition for promoting remyelination in nerve cells comprising 2,5-dihydroxybenzenesulfonic acid and use thereof” (Samsung Electronics Co., Ltd., priority 2015, dated 2017).
# Legend:
# [1] = system: Mauthner axons and myelin in the central nervous system; assay: Remyelination of central nervous system (Mauthner axons) in MTZ-demyelinated transformed zebrafish, g-ratio; type: in vivo, Zebrafish (Danio rerio); conditions: zebrafish ClaudinK line
# Procedure: Transformed Zebrafish (Danio rerio) in which genes respectively encoding an Mbp:EGFP fusion protein and a Claudink:EGFP fusion protein that are specifically expressed in myelin and emit fluorescence by using promoters of a myelin basic protein (MBP) gene and a Claudink gene were prepared, by transforming Zebrafish cells with genes respectively encoding an Mbp:EGFP fusion protein and a Claudink:EGFP fusion protein. Specifically, the NfsB virulence gene encodes a nitroreductase (NTR) enzyme. […] However, when metronidazole (MTZ) is added to cells, the cells convert MTZ into a cytotoxic material by using NTR, which induces apoptosis. […]
# FIG. 6 illustrates the results of GFP-originated fluorescence microscopy and red fluorescence microscopy with immunostaining by acetylated-tubulin that is expressed specific to axons, by using a confocal laser microscope on sections of Mauthner axons and myelin in the central nervous system of the zebrafish (ClaudinK:gal4::UAS:nfsB (NTR, toxin)::UAS:gfp) incubated under various conditions. […] The axon and fiber diameters were obtained by calculating the diameters from the intensities of GFP-originated fluorescence and red axonal fluorescence with the Image J program. […]
# [2] = system: myelin surrounding axons of the posterior lateral line nerves (PLLs); assay: Remyelination of peripheral nervous system (PLL myelin) in MTZ-demyelinated transformed zebrafish, GFP-fluorescence confocal microscopy; type: in vivo, Zebrafish (Danio rerio)
# Procedure: Transformed Zebrafish (Danio rerio) in which genes respectively encoding an Mbp:EGFP fusion protein and a Claudink:EGFP fusion protein that are specifically expressed in myelin and emit fluorescence by using promoters of a myelin basic protein (MBP) gene and a Claudink gene were prepared, by transforming Zebrafish cells with genes respectively encoding an Mbp:EGFP fusion protein and a Claudink:EGFP fusion protein. Specifically, the NfsB virulence gene encodes a nitroreductase (NTR) enzyme. […] However, when metronidazole (MTZ) is added to cells, the cells convert MTZ into a cytotoxic material by using NTR, which induces apoptosis. Genetically engineered zebrafish, i.e., transformed zebrafish that express the NfsB virulence gene specifically in differentiated oligodendrocytes and Schwann cells were prepared by using promoters of mbp and claudink genes that specifically operate in differentiated myelin to express myelin-specific genes bound to myelin, and using the Gal4-UAS transactivator system. Next, it was confirmed that the NfsB virulence gene was myelin-specifically expressed in the transformed zebrafish.
# As a result, an animal model of demyelination that is induced in the presence of MTZ was established. Hereinafter, this animal model is also referred to as zebrafish (Mbp (or claudink):gal4::UAS:nfsB (NTR, toxin)::UAS:gfp). After removing the added MTZ substrate from the culture medium, the transformed zebrafish were then cultured in a culture medium free of MTZ for 1 day, followed by a recovery period. This study, described in greater detail below, confirmed that natural remyelination occurred in the demyelinated central nervous system and peripheral nervous system and that ES drug has an effect of promoting remyelination. […]
# [3] = system: PMP22; assay: PMP22 protein expression by Western blotting in rat Schwann cells overexpressing human PMP22; type: cell-based
# Procedure: Rat Schwann cells were inoculated at a concentration of about 10^5 cells/mL into each well of a 12-well plate including 2 mL of a Dulbecco's Modified Eagle's Medium (DMEM) containing 10% fetal bovine serum (FBS), 100 units/mL of penicillin, and 100 units/mL of streptomycin, and incubated in a 5%-CO2 incubator at about 37° C. to a cell density of about 60% to about 65%. […] Rat Schwann cells are often used in in vitro models for neuronal function and differentiation. The rat Schwann cells used herein were modified to consistently overexpress the human PMP22 gene by lentivital mediated integration of PMP22 into a chromosome and selective use of puromycin-resistant markers, thereby constructing a new rat Schwann PMP22 cell model. The rat Schwann cells (ATCC number; CRL-2768) were purchased from the American Type Culture Collection (ATCC).
# After 2 mL of the culture medium was removed, the resulting rat Schwann cells were washed with phosphate buffered saline (PBS), followed by adding a lysis solution containing a 0.5% triton X-100 in PBS thereto, collecting the cells using a scraper, leaving the cells on ice for about 30 minutes, and then disrupting the cells. […]
compound,measurement,setting,value
"CCNCC.O=S(=O)(O)c1cc(O)ccc1O [ethamsylate, diethyl ammonium 2,5-dihydroxybenzene sulfonic acid]",g-ratio (diameter ratio of axon to nerve fiber),"[1]; Mauthner axons, 10 μM ethamsylate vs MTZ treatment group, FIG. 8",remarkably reduced g-ratio
same,regeneration or remyelination of demyelinated nerve cells in the central nervous system,"[1]; incubated in presence of ethamsylate after MTZ, FIGS. 6 and 8",remyelinated with a significantly higher efficiency
same,ratio of myelinated axons to total axons,"[2]; zebrafish Claudink line, 10 μM ES vs MTZ treated sample, FIGS. 4 and 5",significantly higher
same,remyelination of PLL myelin (GFP and acetylated-tubulin fluorescence),"[2]; zebrafish Claudink:gal4::UAS:nfsB::UAS:gfp, 10 μM ES after MTZ, FIG. 4",promote remyelination
same,myelin in the peripheral nervous system (GFP-originated green fluorescence),"[2]; zebrafish Mbp:gal4::UAS:nfsB::UAS:gfp, MTZ 4.5-6 dpf, washed, 10 μM ES 6-7 dpf (about 1 day), FIG. 3 panel D",completely remyelinated
same,expression level of PMP22 protein,"[3]; 10 μM ethamsylate, incubation for 0.5, 1, 12, 24 and 48 hours, vs 0 hour control, FIG. 1 panel B",decreased compared to the control group
same,amount of PMP22 protein expressed,"[3]; 0.1, 1, 10, 100 μM ethamsylate in DMSO, about 24 hours, vs DMSO control, FIG. 1 panel A, n=4",decrease in the amount of PMP22 protein expressed
